Patent US8853173B2, “Synthetic glycolipid and use thereof” (RIKEN, priority 2010, dated 2014)

Assays:
[1] = test system: NKT cells; settings: cited from earlier work
[2] = test system: NKT cells; settings: cited from earlier work; remark: listed apart in the source
[3] = test system: NKT cells; settings: cited from earlier work; remark: listed apart in the source
[4] = test system: NKT cells; settings: cited from earlier work; remark: listed apart in the source
[5] = test system: NKT cells; settings: cited from earlier work; remark: listed apart in the source
[6] = test system: NKT cells; test: Influence of synthetic glycolipid on cytokine production of NKT cells: IFN-γ in mouse plasma after tail vein administration; format: in vivo, C57BL/6 mice; settings: 100 μg/kg body weight, Cytometric Bead Array, data in FIG. 1-3
Experimental: A solution of each of α-GalCer (KRN7000), compound F and compound H in dimethyl sulfoxide (DMSO) was prepared at a concentration of 1 mg/mL. The above-mentioned DMSO solution was diluted with saline (manufactured by Otsuka Pharmaceutical Co., Ltd.) containing 0.5% tween 20 (Bio-Rad) such that the dose became 100 μg/kg body weight when 200 μL per mouse was administered from the tail vein.
The prepared solutions (200 μL) of compounds F and H were respectively injected to C57BL/6 mice (5 mice per group) from the tail vein. As a control substance, α-GalCer (KRN7000) was used, and a solution (200 μL) of α-GalCer (KRN7000) prepared in the same manner such that the dose became 100 μg/kg body weight was injected into the tail vein. The group administered with saline (200 μL) containing 0.5% tween 20 (medium) was used as a negative control. The blood (80 μL) immediately before administration and after administration (after lapse of the time indicated in FIGS. 1-3) was collected from the orbital sinus and plasma was prepared.
The IFN-γ content of the plasma before administration and after administration (after lapse of the time indicated in FIG. 1) was measured by Cytometric Bead Array system (BD Biosciences) which is one of the ELISA methods. The measurement results (mean) of the production amount of IFN-γ and the standard deviation thereof (STDEV) are shown in FIG. 1.

[7] = test system: NKT cells of mouse; settings: cited from earlier work
[8] = test system: human NKT cells; settings: cited from earlier work

CCCCCCCCCCCCCCCCCCCCCCCCCC(=O)N[C@@H](COC1OC(CO)C(O)C(O)C1O)[C@H](O)[C@H](O)CCCCCCCCCCCCCC (some centres unmarked) [KRN7000]
immunostimulatory activity among synthesized analogs [1]: shows the strongest activity

CCCCCCCCCCCCCCCCCCCCCCCCCC(=O)N[C@@H](COC1CC(CO)C(O)C(O)C1O)[C@H](O)[C@H](O)CCCCCCCCCCCCCC (some centres unmarked) [RCAI-56]
activity in the system of human (in vitro) [2]: strong activity | NKT cell activation / IFN-γ production [3]: strongly activates NKT cells and induces production of a large amount of IFN-γ | activity in the system of mouse [4]: strong activity

CCCCCCCCCCCCCCCCCCCCCCCCCC(=O)N[C@@H](COC1OC(COC)C(O)C(O)C1O)[C@H](O)[C@H](O)CCCCCCCCCCCCCC (some centres unmarked) [RCAI-61]
activity in the system of human (in vitro) [2]: strong activity | NKT cell activation / IFN-γ production [3]: induces production of IFN-γ in large amounts | activity in the system of mouse [4]: strong activity

CCCCCCCCCCCCCCCCS(=O)(=O)N[C@@H](COC1OC(CO)C(O)C(O)C1O)[C@H](O)[C@H](O)CCCCCCCCCCCCCC (some centres unmarked) [compound 5]
type of cytokine production induced [5]: induce production of mostly Th2 type cytokines such as IL-4

CCCCCCCCCCCCCCCCCCCCCCCCC(F)(F)C(=O)N[C@@H](COC1OC(CO)C(O)C(O)C1O)[C@H](O)[C@H](O)CCCCCCCCCCCCCC (some centres unmarked) [compound 6]
type of cytokine production induced [5]: induce production of mostly Th2 type cytokines such as IL-4

CCCCCCCCCCCCCCCCCCCCCCCCc1cn([C@@H](COC2OC(CO)C(O)C(O)C2O)[C@H](O)[C@H](O)CCCCCCCCCCCCCC)nn1 (some centres unmarked) [compound 7]
type of cytokine production induced [5]: induce production of mostly Th2 type cytokines such as IL-4

CCCCCCCCCCCCCCCCCCCCCCCCNC(=O)N[C@@H](CO[C@H]1O[C@H](CO)[C@H](O)[C@H](O)[C@H]1O)[C@H](O)[C@H](O)CCCCCCCCCCCCCC [compound F, (2S,3S,4R)-1-(α-D-galactopyranosyloxy)-2-(tetracosylureido)-3,4-octadecanediol]
IFN-γ production compared with α-GalCer (KRN7000) [6]: selectively induced IFN-γ production in larger amounts than α-GalCer (KRN7000)

CCCCCCCCCCCCCCCCCCCCCCCCNC(=O)N[C@@H](CO[C@H]1O[C@H](COC)[C@H](O)[C@H](O)[C@H]1O)[C@H](O)[C@H](O)CCCCCCCCCCCCCC [compound H, (2S,3S,4R)-1-(6-O-methyl-α-D-galactopyranosyloxy)-2-(tetracosylureido)-3,4-octadecanediol]
IFN-γ production compared with α-GalCer (KRN7000) [6]: selectively induced IFN-γ production in larger amounts than α-GalCer (KRN7000)

CCCCCCCCCCCCCCCCCCCCCCCCCC(=O)N[C@@H](CCC1OC(CO)C(O)C(O)C1O)[C@H](O)[C@H](O)CCCCCCCCCCCCCC (stereo partly drawn) [α-C-GalCer]
activation of mouse NKT cells and IFN-γ production [7]: strongly activates NKT cells of mouse and preferentially produces IFN-γ | activity in vitro on human NKT cells [8]: hardly shows activity
